Measurements published in paper PMC11469372, “Plasmodium SEY1 is a novel druggable target that contributes to imidazolopiperazine mechanism of action” (Research Square, 2024).

Legend:
[1] = biological target: T1, PkSEY1 (Plasmodium knowlesi SEY1) (Plasmodium knowlesi, UniProt B3LAJ9); experiment: surface plasmon resonance (Biacore […], NTA chip); assay type: binding
T1 construct: Full-length, His-tagged (recombinant)

[2] = biological target: T2, PfSTOML (Plasmodium falciparum, UniProt O77376); experiment: proteomic affinity chromatography with GNF179 beads, competition with free GNF179 (TMT MS/MS), parasite lysate; assay type: biochemical
T2 construct: gene PF3D7_0318100

[3] = biological target: T3, PvSEY1 (Plasmodium vivax SEY1) (Plasmodium vivax, UniProt A5K168); experiment: GTPase assay (EnzChek free phosphate) at […] GNF179; also destabilized in lysate thermal shift assay; assay type: biochemical
T3 construct: Full-length PvSEY1-myc-His from E. coli, Ni-NTA eluate
T3 sequence (A5K168 1-889): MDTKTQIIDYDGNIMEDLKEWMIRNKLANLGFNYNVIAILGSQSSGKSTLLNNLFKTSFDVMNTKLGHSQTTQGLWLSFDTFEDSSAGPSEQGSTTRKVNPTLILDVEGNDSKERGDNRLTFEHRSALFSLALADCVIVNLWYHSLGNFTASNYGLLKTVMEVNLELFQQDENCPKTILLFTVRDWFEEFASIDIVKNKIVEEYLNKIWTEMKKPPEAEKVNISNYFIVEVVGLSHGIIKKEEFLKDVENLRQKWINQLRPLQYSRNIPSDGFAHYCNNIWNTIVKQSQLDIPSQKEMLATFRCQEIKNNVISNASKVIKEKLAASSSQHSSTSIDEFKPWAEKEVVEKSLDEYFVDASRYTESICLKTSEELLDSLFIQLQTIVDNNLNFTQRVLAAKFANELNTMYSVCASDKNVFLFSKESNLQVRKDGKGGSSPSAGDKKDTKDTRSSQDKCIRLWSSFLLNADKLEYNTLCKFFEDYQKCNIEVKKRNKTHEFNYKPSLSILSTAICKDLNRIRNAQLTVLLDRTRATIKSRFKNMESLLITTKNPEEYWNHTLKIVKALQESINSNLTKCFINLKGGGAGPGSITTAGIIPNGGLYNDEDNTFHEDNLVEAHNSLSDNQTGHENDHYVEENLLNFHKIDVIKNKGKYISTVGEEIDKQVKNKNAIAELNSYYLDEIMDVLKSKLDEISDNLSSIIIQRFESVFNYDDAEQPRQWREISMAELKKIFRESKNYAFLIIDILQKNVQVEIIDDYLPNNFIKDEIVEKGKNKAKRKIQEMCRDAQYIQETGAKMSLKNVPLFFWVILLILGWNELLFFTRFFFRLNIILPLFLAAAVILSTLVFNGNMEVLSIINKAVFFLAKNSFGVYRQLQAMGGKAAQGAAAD

[4] = biological target: T4, HsFLOT2 (Homo sapiens, UniProt Q14254); experiment: proteomic affinity chromatography with GNF179 beads, competition with free GNF179 (TMT MS/MS), lysate; assay type: biochemical
T4 construct: gene FLOT2
T4 sequence (Q14254 2-428): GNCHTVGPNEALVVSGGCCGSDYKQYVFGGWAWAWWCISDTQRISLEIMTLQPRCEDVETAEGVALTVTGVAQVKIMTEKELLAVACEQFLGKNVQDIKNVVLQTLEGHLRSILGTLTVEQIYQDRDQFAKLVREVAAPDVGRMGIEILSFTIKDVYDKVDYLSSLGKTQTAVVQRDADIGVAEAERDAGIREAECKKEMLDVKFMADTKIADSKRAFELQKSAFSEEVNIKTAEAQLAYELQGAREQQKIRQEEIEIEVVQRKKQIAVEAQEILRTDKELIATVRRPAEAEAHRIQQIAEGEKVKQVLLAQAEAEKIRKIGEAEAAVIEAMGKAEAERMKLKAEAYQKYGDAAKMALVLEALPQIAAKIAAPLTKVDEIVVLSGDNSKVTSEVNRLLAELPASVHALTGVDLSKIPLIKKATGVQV

[5] = biological target: T5, HsFLOT1 (Homo sapiens, UniProt O75955); experiment: as above; assay type: biochemical
T5 construct: gene FLOT1
T5 sequence (O75955 1-427): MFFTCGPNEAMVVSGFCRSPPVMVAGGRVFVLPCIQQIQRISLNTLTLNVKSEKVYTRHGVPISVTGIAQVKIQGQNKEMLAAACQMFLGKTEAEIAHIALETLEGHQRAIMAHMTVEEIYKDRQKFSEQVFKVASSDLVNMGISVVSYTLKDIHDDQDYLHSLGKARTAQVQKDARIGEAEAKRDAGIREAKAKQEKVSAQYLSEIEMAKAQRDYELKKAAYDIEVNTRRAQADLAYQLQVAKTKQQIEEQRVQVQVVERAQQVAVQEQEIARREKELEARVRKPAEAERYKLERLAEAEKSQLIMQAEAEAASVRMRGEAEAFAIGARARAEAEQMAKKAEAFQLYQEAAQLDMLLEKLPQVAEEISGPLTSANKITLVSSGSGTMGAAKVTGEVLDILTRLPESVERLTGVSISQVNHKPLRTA

T2 sequence (O77376 entry or part of it): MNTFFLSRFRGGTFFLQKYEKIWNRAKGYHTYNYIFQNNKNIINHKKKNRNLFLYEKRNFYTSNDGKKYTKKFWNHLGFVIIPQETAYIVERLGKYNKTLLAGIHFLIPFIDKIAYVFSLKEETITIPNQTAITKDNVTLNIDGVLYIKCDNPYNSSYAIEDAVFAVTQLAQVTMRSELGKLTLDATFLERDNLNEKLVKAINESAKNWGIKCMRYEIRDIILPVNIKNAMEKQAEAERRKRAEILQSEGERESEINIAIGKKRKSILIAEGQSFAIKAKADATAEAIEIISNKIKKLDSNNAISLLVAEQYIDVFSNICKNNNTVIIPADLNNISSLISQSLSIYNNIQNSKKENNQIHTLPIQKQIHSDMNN
T1 sequence (B3LAJ9 whole entry): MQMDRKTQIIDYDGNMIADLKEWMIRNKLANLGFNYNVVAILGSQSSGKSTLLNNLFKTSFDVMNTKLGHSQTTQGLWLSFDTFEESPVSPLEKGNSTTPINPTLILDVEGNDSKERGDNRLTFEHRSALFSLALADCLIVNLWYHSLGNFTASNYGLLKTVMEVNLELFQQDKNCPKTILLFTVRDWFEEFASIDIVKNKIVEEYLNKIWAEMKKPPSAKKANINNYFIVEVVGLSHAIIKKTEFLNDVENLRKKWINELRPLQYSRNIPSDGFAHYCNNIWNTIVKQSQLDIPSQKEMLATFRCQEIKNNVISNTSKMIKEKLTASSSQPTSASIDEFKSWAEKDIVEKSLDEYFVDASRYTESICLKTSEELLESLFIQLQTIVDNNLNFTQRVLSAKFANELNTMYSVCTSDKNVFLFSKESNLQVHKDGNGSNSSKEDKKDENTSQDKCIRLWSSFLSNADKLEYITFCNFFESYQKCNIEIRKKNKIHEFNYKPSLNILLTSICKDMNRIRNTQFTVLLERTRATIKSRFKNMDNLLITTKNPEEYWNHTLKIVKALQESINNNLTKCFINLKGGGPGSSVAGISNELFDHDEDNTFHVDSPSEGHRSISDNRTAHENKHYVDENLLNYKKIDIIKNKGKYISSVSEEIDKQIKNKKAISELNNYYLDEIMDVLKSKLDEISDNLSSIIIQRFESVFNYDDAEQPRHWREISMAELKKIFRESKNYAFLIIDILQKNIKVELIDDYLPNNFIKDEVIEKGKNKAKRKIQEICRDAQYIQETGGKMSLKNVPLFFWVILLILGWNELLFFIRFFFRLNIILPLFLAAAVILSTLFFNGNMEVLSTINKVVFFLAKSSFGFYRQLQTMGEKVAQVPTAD

CC1(C)c2nc(-c3ccc(F)cc3)c(Nc3ccc(Cl)cc3)n2CCN1C(=O)CN [GNF179]
Kd [1]: 144000 nM | Kd [2]: 3170 nM | GTPase assay (EnzChek free phosphate) at 125 μM GNF179; also destabilized in lys [3]: These results indicate a reduction of PvSEY1 GTPase activity by GNF179. | Kd [4]: 390 nM | Kd [5]: 340 nM
